Source: ChEMBL document CHEMBL3885861, “Open TG-GATES”

Organism: Rattus norvegicus
Assay: Open TG-GATES - Regimen: Single
Format: toxicity, organism-based, Sprague-Dawley
Parameters: regimen Single, gender Male, age 6 weeks
Details: in vivo, iv, route intravenous injection; for KIDNEY_L / KIDNEY_R / KIDNEY_TOTAL: tissue Kidney; for LIVER: tissue Liver; for ALP / ALT / AST / CRE / DBIL / GLC / IP / K / LDH / PL / RALB / TBIL / TC / TG / TP / gamma-GTP / BUN: tissue Plasma
[1] = 10 mg/kg, 3 h, tissue Blood, dose level Low
[2] = 10 mg/kg, 6 h, tissue Blood, dose level Low
[3] = 10 mg/kg, 9 h, tissue Blood, dose level Low
[4] = 10 mg/kg, 24 h, tissue Blood, dose level Low
[5] = 30 mg/kg, 3 h, tissue Blood, dose level Middle

GENTAMICIN
Lym [1]: 78.8% | MCH [1]: 21.8 pg | MCHC [1]: 34.1% | MCV [1]: 64 fL | Mono [1]: 3% | Neu [1]: 17% | PT [1]: 16.2 s | Plat [1]: 121.8 x10_4/uL | RBC [1]: 595.2 x10_4/ul | Ret [1]: 7.2% | WBC [1]: 114 x10_2/uL | KIDNEY_L (10 mg/kg, 3 h, dose level Low): 0.9 g | KIDNEY_R (10 mg/kg, 3 h, dose level Low): 1 g | KIDNEY_TOTAL (10 mg/kg, 3 h, dose level Low): 1.9 g | LIVER (10 mg/kg, 3 h, dose level Low): 9.7 g | ALP (10 mg/kg, 3 h, dose level Low): 1674.8 IU/L | ALT (10 mg/kg, 3 h, dose level Low): 40.6 IU/L | AST (10 mg/kg, 3 h, dose level Low): 72.8 IU/L | CRE (10 mg/kg, 3 h, dose level Low): 0.2 mg/dL | DBIL (10 mg/kg, 3 h, dose level Low): 0.002 mg/dL | GLC (10 mg/kg, 3 h, dose level Low): 181.2 mg/dL | IP (10 mg/kg, 3 h, dose level Low): 7.8 mg/dL | K (10 mg/kg, 3 h, dose level Low): 4.2 meq/L | LDH (10 mg/kg, 3 h, dose level Low): 188 IU/L | PL (10 mg/kg, 3 h, dose level Low): 131.8 mg/dL | RALB (10 mg/kg, 3 h, dose level Low): 2.9 g/dL | TBIL (10 mg/kg, 3 h, dose level Low): 0.018 mg/dL | TC (10 mg/kg, 3 h, dose level Low): 66.6 mg/dL | TG (10 mg/kg, 3 h, dose level Low): 91.4 mg/dL | TP (10 mg/kg, 3 h, dose level Low): 5.3 g/dL | gamma-GTP (10 mg/kg, 3 h, dose level Low): 1.4 IU/L | TERMINAL_BW (10 mg/kg, 6 h, dose level Low): 207.8 g | APTT [2]: 23.6 s | Bas [2]: 0% | Eos [2]: 0.8% | Fbg [2]: 282.6 mg/dL | Ht [2]: 39.5% | Lym [2]: 83% | MCH [2]: 21 pg | Mono [2]: 2.8% | PT [2]: 15.9 s | Plat [2]: 131.7 x10_4/uL | RBC [2]: 634.2 x10_4/ul | Ret [2]: 6.8% | WBC [2]: 102.7 x10_2/uL | KIDNEY_L (10 mg/kg, 6 h, dose level Low): 0.9 g | KIDNEY_R (10 mg/kg, 6 h, dose level Low): 0.9 g | KIDNEY_TOTAL (10 mg/kg, 6 h, dose level Low): 1.8 g | LIVER (10 mg/kg, 6 h, dose level Low): 8.7 g | ALP (10 mg/kg, 6 h, dose level Low): 1173 IU/L | ALT (10 mg/kg, 6 h, dose level Low): 36.4 IU/L | AST (10 mg/kg, 6 h, dose level Low): 68.8 IU/L | CRE (10 mg/kg, 6 h, dose level Low): 0.2 mg/dL | DBIL (10 mg/kg, 6 h, dose level Low): 0.002 mg/dL | GLC (10 mg/kg, 6 h, dose level Low): 175 mg/dL | IP (10 mg/kg, 6 h, dose level Low): 9.1 mg/dL | K (10 mg/kg, 6 h, dose level Low): 4.3 meq/L | LDH (10 mg/kg, 6 h, dose level Low): 216.2 IU/L | PL (10 mg/kg, 6 h, dose level Low): 139.6 mg/dL | RALB (10 mg/kg, 6 h, dose level Low): 3 g/dL | TBIL (10 mg/kg, 6 h, dose level Low): 0.022 mg/dL | TC (10 mg/kg, 6 h, dose level Low): 77.6 mg/dL | TG (10 mg/kg, 6 h, dose level Low): 74.8 mg/dL | TP (10 mg/kg, 6 h, dose level Low): 5.4 g/dL | gamma-GTP (10 mg/kg, 6 h, dose level Low): 1.6 IU/L | TERMINAL_BW (10 mg/kg, 9 h, dose level Low): 208.7 g | APTT [3]: 23.8 s | Bas [3]: 0% | Eos [3]: 0.8% | Fbg [3]: 317.6 mg/dL | Ht [3]: 39.5% | Lym [3]: 80.6% | MCHC [3]: 33.4% | Mono [3]: 3.2% | PT [3]: 16.2 s | Plat [3]: 125.8 x10_4/uL | RBC [3]: 642.4 x10_4/ul | Ret [3]: 6.1% | WBC [3]: 90.1 x10_2/uL | KIDNEY_L (10 mg/kg, 9 h, dose level Low): 1 g | KIDNEY_R (10 mg/kg, 9 h, dose level Low): 1 g | KIDNEY_TOTAL (10 mg/kg, 9 h, dose level Low): 1.9 g | LIVER (10 mg/kg, 9 h, dose level Low): 8.2 g | ALP (10 mg/kg, 9 h, dose level Low): 1357 IU/L | AST (10 mg/kg, 9 h, dose level Low): 66.4 IU/L | BUN (10 mg/kg, 9 h, dose level Low): 11 mg/dL | CRE (10 mg/kg, 9 h, dose level Low): 0.1 mg/dL | DBIL (10 mg/kg, 9 h, dose level Low): 0.004 mg/dL | GLC (10 mg/kg, 9 h, dose level Low): 180.6 mg/dL | IP (10 mg/kg, 9 h, dose level Low): 8.9 mg/dL | K (10 mg/kg, 9 h, dose level Low): 4.2 meq/L | LDH (10 mg/kg, 9 h, dose level Low): 120.2 IU/L | PL (10 mg/kg, 9 h, dose level Low): 128 mg/dL | RALB (10 mg/kg, 9 h, dose level Low): 3 g/dL | TBIL (10 mg/kg, 9 h, dose level Low): 0.026 mg/dL | TC (10 mg/kg, 9 h, dose level Low): 69 mg/dL | TG (10 mg/kg, 9 h, dose level Low): 56 mg/dL | TP (10 mg/kg, 9 h, dose level Low): 5.4 g/dL | gamma-GTP (10 mg/kg, 9 h, dose level Low): 1 IU/L | TERMINAL_BW (10 mg/kg, 24 h, dose level Low): 226 g | APTT [4]: 23.6 s | Bas [4]: 0% | Eos [4]: 0.8% | Fbg [4]: 300.6 mg/dL | Ht [4]: 38.7% | Lym [4]: 80.4% | MCHC [4]: 34% | MCV [4]: 61.6 fL | Mono [4]: 3.2% | Plat [4]: 126.1 x10_4/uL | RBC [4]: 628.8 x10_4/ul | Ret [4]: 6.2% | WBC [4]: 119.3 x10_2/uL | KIDNEY_L (10 mg/kg, 24 h, dose level Low): 1 g | KIDNEY_R (10 mg/kg, 24 h, dose level Low): 1 g | KIDNEY_TOTAL (10 mg/kg, 24 h, dose level Low): 1.9 g | LIVER (10 mg/kg, 24 h, dose level Low): 10.2 g | ALP (10 mg/kg, 24 h, dose level Low): 1490.2 IU/L | ALT (10 mg/kg, 24 h, dose level Low): 37.8 IU/L | AST (10 mg/kg, 24 h, dose level Low): 68.2 IU/L | BUN (10 mg/kg, 24 h, dose level Low): 16.6 mg/dL | CRE (10 mg/kg, 24 h, dose level Low): 0.2 mg/dL | DBIL (10 mg/kg, 24 h, dose level Low): 0 mg/dL | IP (10 mg/kg, 24 h, dose level Low): 6.4 mg/dL | K (10 mg/kg, 24 h, dose level Low): 4.5 meq/L | LDH (10 mg/kg, 24 h, dose level Low): 171.6 IU/L | PL (10 mg/kg, 24 h, dose level Low): 139.2 mg/dL | RALB (10 mg/kg, 24 h, dose level Low): 2.9 g/dL | TBIL (10 mg/kg, 24 h, dose level Low): 0.01 mg/dL | TC (10 mg/kg, 24 h, dose level Low): 69.4 mg/dL | TG (10 mg/kg, 24 h, dose level Low): 100 mg/dL | TP (10 mg/kg, 24 h, dose level Low): 5.4 g/dL | gamma-GTP (10 mg/kg, 24 h, dose level Low): 1.2 IU/L | TERMINAL_BW (30 mg/kg, 3 h, dose level Middle): 214 g | APTT [5]: 23.2 s | Bas [5]: 0% | Eos [5]: 1% | Fbg [5]: 287.4 mg/dL | Ht [5]: 39.3% | Lym [5]: 79% | MCHC [5]: 34%
